What all share (format): in vivo, Rats
For test [1], the system named is Streptozotocin (STZ) induced type 1 diabetes (T1DM). Briefly: Streptozotocin (STZ) induced type 1 diabetes: plasma glucose, body weight, food intake, water intake, urine output. The conditions noted are these: 10 IU/kg subcutaneous. As for the experimental part:
The objective of the study is to evaluate the pharmaceutical preparation in Type-1 Diabetes Mellitus (T1DM) and to compare the efficacy in comparison to standard hypoglycemic agents as insulin. Experimental model: Streptozotocin (STZ) induced type 1 diabetes (T1DM). Dose: STZ (45 mg/kg for rats) for T1DM Route: STZ was administered intraperitoneally (i.p.). Pharmaceutical preparation was administered peroral (p.o.) in three doses. Volume Administered: Rat—5 ml/kg Animals: Rats of Wistar or Sprague Dawley strain weighing from 150-200 g of either sex. The animals were housed under optimal laboratory conditions, maintained on a natural (12 h) light and (12 h) dark cycle and have free access to food and water ad libitum. Animals were acclimatized to laboratory conditions before the tests. […] Parameters to be evaluated: The following parameters were evaluated at confirmation of diabetes and after 28 days of treatment. • a) Body weight, water and food intake was monitored weekly. • b) Blood Glucose Level: Glucose was estimated using diagnostic kits by GOD-POD method and the experiment was conducted following the manufacturer's instructions. • c) Oral Glucose Tolerance Test (OGTT): An oral glucose tolerance test was carried out in conscious rats. For this the rats was fasted overnight and glucose (2 g/kg b.w.) was given from 30% solution by oral gavage. Tail blood samples was collected before glucose load and sequentially for every half an hour after glucose load upto 90 minutes and was immediately analysed for glucose. • d) Measurement of Plasma Insulin Level: Insulin was estimated using insulin ELISA kit (LINCO) and the experiment was conducted following the manufacturer's instructions. It is a solid phase sandwich enzyme-linked immunosorbent assay (ELISA), which uses a microtitre plate reader at 450 nm. Concentrations of insulin were calculated from plotted standard curves. All results were expressed as Mean±SEM. The intergroup variation was measured by one-way analysis of variance (ANOVA) followed by Tukey's test. Statistical significance was considered at P<0.05. The statistical analysis was done using the SPSS Statistical Software version 16 (SPSS Inc. 233 South Wacker Drive, 11th Floor Chicago, IL 60606-6412).

For test [2] the test system is unchanged. Briefly: Plasma insulin level (ELISA) in STZ induced type 1 diabetes. The conditions noted are these: 10 IU/kg subcutaneous. As for the experimental part:
The objective of the study is to evaluate the pharmaceutical preparation in Type-1 Diabetes Mellitus (T1DM) and to compare the efficacy in comparison to standard hypoglycemic agents as insulin. Experimental model: Streptozotocin (STZ) induced type 1 diabetes (T1DM). Dose: STZ (45 mg/kg for rats) for T1DM Route: STZ was administered intraperitoneally (i.p.). Pharmaceutical preparation was administered peroral (p.o.) in three doses. Animals: Rats of Wistar or Sprague Dawley strain weighing from 150-200 g of either sex. The animals were housed under optimal laboratory conditions, maintained on a natural (12 h) light and (12 h) dark cycle and have free access to food and water ad libitum. Animals were acclimatized to laboratory conditions before the tests. Study Design: Animals were divided into 8 groups of 10 animals in each group. • a) Group I: Control or vehicle treated group • b) Group II: Type 1 diabetic group • c) Group III: pharmaceutical preparation (90 mg/kg)+Diabetic animals • d) Group IV: pharmaceutical preparation (180 mg/kg)+Diabetic animals • e) Group V: pharmaceutical preparation (360 mg/kg)+Diabetic animals • f) Group VI: Satcol (60 mg/kg)+Diabetic animals • g) Group VII: pharmaceutical preparation (90 mg/kg)+Insulin (10IU)+Diabetic animals • h) Group VIII: Insulin (10IU)+Diabetic animals Drugs were administered for 28 days after confirmation of diabetes. Parameters to be evaluated: […]) Body weight, water and food intake was monitored weekly. • b) Blood Glucose Level: Glucose was estimated using diagnostic kits by GOD-POD method and the experiment was conducted following the manufacturer's instructions. • c) Oral Glucose Tolerance Test (OGTT): An oral glucose tolerance test was carried out in conscious rats. For this the rats was fasted overnight and glucose (2 g/kg b.w.) was given from 30% solution by oral gavage. Tail blood samples was collected before glucose load and sequentially for every half an hour after glucose load upto 90 minutes and was immediately analysed for glucose. • d) Measurement of Plasma Insulin Level: Insulin was estimated using insulin ELISA kit (LINCO) and the experiment was conducted following the manufacturer's instructions. It is a solid phase sandwich enzyme-linked immunosorbent assay (ELISA), which uses a microtitre plate reader at 450 nm. Concentrations of insulin were calculated from plotted standard curves. All results were expressed as Mean±SEM. The intergroup variation was measured by one-way analysis of variance (ANOVA) followed by Tukey's test. Statistical significance was considered at P<0.05. The statistical analysis was done using the SPSS Statistical Software version 16 (SPSS Inc. 233 South Wacker Drive, 11th Floor Chicago, IL 60606-6412).
(In an ELISA, binding on a coated surface is turned into a signal by an enzyme label.)

Test [3] shares this test system. Briefly: Oral Glucose Tolerance Test (OGTT) in STZ induced type 1 diabetes. The conditions noted are these: 10 IU/kg subcutaneous. Here is the method: The objective of the study is to evaluate the pharmaceutical preparation in Type-1 Diabetes Mellitus (T1DM) and to compare the efficacy in comparison to standard hypoglycemic agents as insulin. Experimental model: Streptozotocin (STZ) induced type 1 diabetes (T1DM). Dose: STZ (45 mg/kg for rats) for T1DM Route: STZ was administered intraperitoneally (i.p.). Pharmaceutical preparation was administered peroral (p.o.) in three doses. Animals: Rats of Wistar or Sprague Dawley strain weighing from 150-200 g of either sex. The animals were housed under optimal laboratory conditions, maintained on a natural (12 h) light and (12 h) dark cycle and have free access to food and water ad libitum. Animals were acclimatized to laboratory conditions before the tests. Study Design: Animals were divided into 8 groups of 10 animals in each group. • a) Group I: Control or vehicle treated group • b) Group II: Type 1 diabetic group • c) Group III: pharmaceutical preparation (90 mg/kg)+Diabetic animals • d) Group IV: pharmaceutical preparation (180 mg/kg)+Diabetic animals • e) Group V: pharmaceutical preparation (360 mg/kg)+Diabetic animals • f) Group VI: Satcol (60 mg/kg)+Diabetic animals • g) Group VII: pharmaceutical preparation (90 mg/kg)+Insulin (10IU)+Diabetic animals • h) Group VIII: Insulin (10IU)+Diabetic animals Drugs were administered for 28 days after confirmation of diabetes. Parameters to be evaluated: The following parameters were evaluated at confirmation of diabetes and after 28 days of treatment. • a) Body weight, water and food intake was monitored weekly. • b) Blood Glucose Level: Glucose was estimated using diagnostic kits by GOD-POD method and the experiment was conducted following the manufacturer's instructions. • c) Oral Glucose Tolerance Test (OGTT): An oral glucose tolerance test was carried out in conscious rats. For this the rats was fasted overnight and glucose (2 g/kg b.w.) was given from 30% solution by oral gavage. […] for glucose. • d) Measurement of Plasma Insulin Level: Insulin was estimated using insulin ELISA kit (LINCO) and the experiment was conducted following the manufacturer's instructions. It is a solid phase sandwich enzyme-linked immunosorbent assay (ELISA), which uses a microtitre plate reader at 450 nm. Concentrations of insulin were calculated from plotted standard curves. All results were expressed as Mean±SEM. The intergroup variation was measured by one-way analysis of variance (ANOVA) followed by Tukey's test. Statistical significance was considered at P<0.05. The statistical analysis was done using the SPSS Statistical Software version 16 (SPSS Inc. 233 South Wacker Drive, 11th Floor Chicago, IL 60606-6412).

The test system of test [4] is Streptozotocin-nicotinamide induced Type-2 diabetes (T2DM). Briefly: Streptozotocin-nicotinamide induced Type-2 diabetes: plasma glucose. The note with it: 5 mg/kg oral gavage. As for the experimental part: (§1) The objective of the study is to evaluate pharmaceutical preparation in Type-2 diabetes mellitus (T2DM) and to compare efficacy of these in comparison to standard hypoglycemic agent pioglitazone.
(§2) Experimental model: Streptozotocin-nicotinamide induced Type-2 diabetes (T2DM): Single intraperitoneal injection of nicotinamide and streptozotocin was administered. Dose: STZ (45 mg/kg for rats)+Nicotinamide (230 mg/kg for rats) for T2DM pharmaceutical preparation (45.90 & 180 mg/kg). Route: STZ & Nicotinamide were administered intraperitoneally (i.p.). Pharmaceutical preparation & pioglitazone were administered per orally (oral gavage). Volume Administered: Rat—5 mL/kg Animals: Rats of Wistar strain weighing from 150-200 g of either sex used for the study. The animals were housed under optimal laboratory conditions, maintained on a natural (12 h) light and (12 h) dark cycle and had free access to food and water ad libitum. Animals were acclimatized to laboratory conditions before the tests. Study Design: Animals were divided into 6 groups of 5-8 animals in each group: • a) Group I: Control or vehicle treated group • b) Group II: Type 2 diabetic group • c) Group III: Diabetic animals+pharmaceutical preparation (45 mg/kg) • d) Group IV: Diabetic animals+pharmaceutical preparation (90 mg/kg) • e) Group V: Diabetic animals +pharmaceutical preparation (180 mg/kg) • f) Group VI: Diabetic animals+Pioglitazone (5 mg/kg)
(§3) Pharmaceutical preparation was administered after confirmation of diabetes for 28 days.
Parameters to be evaluated: The […]) Body weight, water and food intake was monitored. • b) Blood Glucose Level: Glucose was estimated using diagnostic kits by GOD-POD method and the experiment was conducted following the manufacturer's instructions. • c) Estimation of Glycosylated Haemoglobin (HbA1c): HbA1c is a good indicator of protein glycosylation. Excess of glucose conjugates with proteins to form glycosylated moieties. It was estimated by ion-resin method using commercial kits.

Test [5] has the same test system. Briefly: Streptozotocin-nicotinamide induced Type-2 diabetes: Glycosylated Haemoglobin (HbA1c). The note with it: 5 mg/kg oral gavage. Here is the method:
as §1, §2, §3
Parameters to be evaluated: The following parameters were evaluated after confirmation of diabetes on day 1, 7, 14, 21 and 28 days. • a) Body weight, water and food intake was monitored. • b) Blood Glucose Level: Glucose was estimated using diagnostic kits by GOD-POD method and the experiment was conducted following the manufacturer's instructions. • c) Estimation of Glycosylated Haemoglobin (HbA1c): HbA1c is a good indicator of protein glycosylation. Excess of glucose conjugates with proteins to form glycosylated moieties. It was estimated by ion-resin method using commercial kits.

For Insulin, the “Mean Plasma Glucose” value was 226 ± 12.4 mg/dL in test [1] (6th Week); 233 ± 16.0 mg/dL in test [1] (10th Week); 352 ± 42.4 mg/dL in test [1] (Day 1); 249 ± 5.7 mg/dL in test [1] (Day 7); 222 ± 14.1 mg/dL in test [1] (Day 14); 233 ± 13.3 mg/dL in test [1] (Day 21). For the same compound, the “Mean Plasma Glucose” value in test [1] (Day 28) stood at 211 ± 8.6 mg/dL. Moreover, the “Food Intake” value is 21 ± 0.66 gm in test [1] (Day 1); 23 ± 0.43 gm in test [1] (Day 7); 27 ± 0.58 gm in test [1] (Day 14); 30 ± 0.56 gm in test [1] (Day 21); 34 ± 0.93 gm in test [1] (Day 28). Besides, the “Mean Body Weight” value in test [1] (Day 1) is on record as 278 ± 3.7 gm; in test [1] (Day 7), 277 ± 4.4 gm; in test [1] (Day 14), 280 ± 3.9 gm; in test [1] (Day 21), 279 ± 4.5 gm; in test [1] (Day 28), 279 ± 4.9 gm. Also, the “Urine Volume” value in test [1] (Day 1) was 9 ± 0.63 mL; in test [1] (Day 7) it was 16 ± 1.91 mL; in test [1] (Day 21) it was 26 ± 3.61 mL; in test [1] (Day 28) it was 26 ± 4.43 mL. In addition, the “Water Intake” value in test [1] (Day 1) was 9 ± 0.95 mL; in test [1] (Day 7), 14 ± 0.85 mL; in test [1] (Day 14), 20 ± 0.86 mL; in test [1] (Day 21), 25 ± 2.77 mL; in test [1] (Day 28) it was 31 ± 3.08 mL. Moreover, the “Percentage Change in plasma insulin” value is recorded as 0% in test [2] (Day 1); −42% in test [2] (Day 7); −39% in test [2] (Day 14); −37% in test [2] (Day 21); −34% in test [2] (Day 28). For the same compound, the “OGTT Mean Plasma Glucose” value in test [3] (0.5 hour) is 389 ± 95.77 mg/dL; in test [3] (2.0 hour), 315 ± 102.13 mg/dL; in test [3] (4.0 hour), 311 ± 217.52 mg/dL; in test [3] (8.0 hour) it was 233 ± 29.73 mg/dL.
With `CCc1ccc(CCOc2ccc(CC3SC(=O)NC3=O)cc2)nc1` (stereo not drawn) [Pio, Pioglitazone], the “Mean Plasma Glucose” value in test [4] (Day 3) amounted to 144 mg/dL; in test [4] (Day 7), 149 mg/dL; in test [4] (Day 14), 141 mg/dL; in test [4] (Day 21) it was 132 mg/dL; in test [4] (Day 28), 126 mg/dL. Further, the “Glycosylated Hemoglobin” value in test [5] (Day 1) was determined as 6.66; in test [5] (Day 7) it was 10.78; in test [5] (Day 14), 9.67; in test [5] (Day 21), 8.44; in test [5] (Day 28), 7.96.

(Values after patent publication US20240041971A1, “A PROCESS OF PREPARATION OF FLOUR MIX AND ITS USE FOR THE TREATMENT OF DIABETES” (priority 2020, published 2024).)
